These results are taken from ChEMBL document CHEMBL1773064, “Engineered Thermoplasma acidophilum factor F3 mimics human aminopeptidase N (APN) as a target for anticancer drug development” (Bioorg Med Chem, 2011).

Data set [1] can be described thus: Inhibition of Thermoplasma acidophilum ATCC25905 recombinant Tricorn protease-interacting factor F3 E101Q, N261T mutant using Leu-p-nitroanilide as a substrate after 30 mins.
A short description of data set [2]: Solubility of compound. The format is physicochemical.

Regarding `NC(Cc1ccccc1)C(=O)NC(CCCCNC(=O)OCc1ccccc1)C(=O)NO` (configuration not stated), in data set [1], the IC50 (commonly the concentration at which inhibition is half-maximal) came to 30 µM. Also, the solubility entry in data set [2] is reported as “soluble”.
